In PMC12386934, “Characteristics and Potential of KSL, KSL-W, and Dadapin-1 Antimicrobial Peptides for Preventing Infections of Orthopedic Prosthetic Devices: Identifying the Most Robust Candidate” (International Journal of Molecular Sciences, 2025):
In brackets after ≈: the same amount, converted by molar mass. Where a SMILES comes first, the peptide text is derived from it.

How the values were obtained:
Type in all cases: cell-based
[1] = tested on: S. epidermidis cra4029 (SE 02)
From the text: (§1) The experimental scheme reported in Figure 6 helped to simplify and optimize the in vitro testing of the antibacterial activity of the different AMPs. The initial transparent microtiter plate for the determination of the minimum inhibitory concentration (MIC) by optical density (OD) measurement was conveniently used as a starting point not only for the alterative determination of the MIC by luminescence but also for the minimum bactericidal concentration (MBC) and for the minimum biofilm inhibitory concentration (MBIC), as explained below. For every test peptide, at least three independent experiments were performed on each bacterial strain per test condition (100% MHB and 20% MHB). The sole exception to this rule was when MIC values were on rare occasions found to be greater than 500 µg/mL. Under these circumstances, two consecutive experiments were performed to confirm the results. In this case, the antibacterial activity was considered insignificant and the third experiment was generally considered unnecessary.
(§2) The antibacterial properties of the test AMPs were assayed under two distinct conditions of bacterial culture: (i) with bacteria cultured in undiluted Mueller–Hinton II Broth (MHB II) and (ii) with bacteria cultured in diluted MHB II as earlier described in Campoccia et al.. Briefly, a few colonies of each bacterial strain, taken from overnight cultures on Mueller–Hinton Agar plates (MHA, PO50007A, ThermoScientific, Thermo Fisher Scientific, Segrate, Italy), were resuspended in Mueller–Hinton II Broth (MHB II, 24107, Liofilchem, Roseto degli Abruzzi, Italy), either undiluted or at a 20% dilution in deionized water. The concentration of bacteria was adjusted to approximately 10^8 CFU/mL, as estimated by optical density reading at 625 nm, using a Hewlett Packard G1103A spectrophotometer (Waldbronn, Germany). The bacterial suspension was further diluted 1:100 in 100% or 20% MHB II.
(§3) Serial 1:2 dilutions of all the test peptides were prepared in sterile deionized water starting from a stock solution of 1 mg/mL. Microtiter plates (96-Well CytoOne® Plate, CC7672-7596, Starlab S.r.l., Milano, Italy) were prepared by adding a volume of 100 µL of inoculum to 100 µL of treatment. Each AMP dilution was assayed in triplicate; each microplate included triplicate wells for the blank (100 µL of sterile distilled water and 100 µL of sterile MHB II), and 3 to 6 wells for reference control of 100% growth (100 µL of sterile deionized water and 100 µL of MHB II inoculated with the bacterium). Positive controls were performed in triplicate wells with 100 µL of a 10 mg/mL gentamicin solution (G1272, Sigma Aldrich, Milan, Italy) and with 100 µL of a solution containing 10,000 units/mL of penicillin and 10,000 µg/mL of streptomycin (penicillin–streptomycin, 15140-122, Life Technologies, Monza, Italy).
(§4) After a 1-day incubation at 37 °C, the MIC was determined by two distinct methods: (1) optical density measurement and (2) bioluminescence reading. In the first case, the optical density of the microtiter plates was read directly at a wavelength of 600 nm and the MIC was estimated from the curves obtained by plotting the OD measurements. For the bioluminescence reading, after gentle resuspension, 100 µL of each treated culture was transferred to a new 96-well non-treated plate (236105/237105, Life Technologies, Monza, Italy) and the metabolic activity was determined by the kit Bac-Titer Glo Microbial Cell Viability Assay (G8231, Promega Italia S.r.l, Milan, Italy). Optical density and bioluminescence were read by a Modulus II multifunction plate reader (Turner BioSystems, Sunnyvale, CA, USA) or, alternatively, by an Infinite M Plex (Tecan Group Ltd., Männedorf, Switzerland). As earlier described in [24], in the case of luminescence, the MIC was identified from the curves of growth inhibition as the first concentration leading to a 1-log reduction in bacterial growth (i.e., 90% growth inhibition). […]

[2] = tested on: E. faecalis cra4033 (EF 02)
From the text: as §1, §2, §3, §4

[3] = tested on: E. coli cra4038 (EC); conditions: cra4038 (EC)
From the text: as §1, §2, §3
(§5) The wells of the microplate, initially used for the determination of the MIC, were rinsed twice with 220 µL of phosphate-buffered solution (PBS) to remove loosely attached and planktonic bacteria. A total of 100 µL of fresh PBS and 100 µL of Bac-Titer Glo solution (G8231, Promega Italia S.r.l., Milan, Italy) were added to each well. After a 10 min incubation, a volume of 100 µL was transferred to a new microplate for luminescence determination as described above. As a general rule, the MBIC value was identified as the concentration at which a reduction of at least a log in the metabolic activity was observed.

[4] = tested on: S. epidermidis cra4029 (SE 02); remark: listed apart in the source
From the text: as §1, §2, §3, §5

[5] = tested on: P. aeruginosa cra4004 (PA 01)
From the text: as §1, §2, §3, §5

[6] = tested on: E. faecalis cra4024 (EF 01)
From the text: as §1, §2, §3, §5

[7] = tested on: P. aeruginosa cra3840 (PA 02); conditions: cra3840 (PA 02, 24 h)
From the text: as §1, §2, §3, §5

[8] = tested on: S. aureus cra4030 (SA 01); conditions: cra4030 (SA 01, 24 h)
From the text: as §1, §2, §3, §5

[9] = tested on: S. aureus cra2198 (SA 02); conditions: cra2198 (SA 02)
From the text: as §1, §2, §3, §5

[10] = tested on: S. epidermidis cra4034 (SE 01); conditions: cra4034 (SE 01)
From the text: as §1, §2, §3, §5

[11] = tested on: E. faecalis cra4033 (EF 02); remark: listed apart in the source
From the text: as §1, §2, §3, §5

[12] = tested on: S. epidermidis cra4029 (SE 02); remark: listed apart in the source
From the text: as §1
as §2, with “II. […]” for “II.”
For assessing the MBC, 10 μL of bacterial suspensions was taken from wells corresponding to MIC, 2× MIC, and 4× MIC and then plated on MHA plates. […] The MBC was determined as the lowest dilution causing absence of bacterial colonies growth on the plate.
In order to assess the extent of the interference of the culture medium composition with the antibacterial activity of the three peptides, a “Rate of Abatement” of the bactericidal properties (RoA) was calculated using the following formula (Equation (1)):RoA = MBCMHB/MBC20% MHB(1)
RoA indicates the fold increases in the MBC when tested in undiluted medium […], i.e., with maximal interference of broth polyanionic substances, with respect to diluted medium […]. […] A more versatile measure to express the loss of activity was calculated as follows. […]

For `CC(C)[C@H](NC(=O)[C@H](Cc1c[nH]c2ccccc12)NC(=O)[C@H](Cc1ccccc1)NC(=O)[C@@H](NC(=O)[C@@H](NC(=O)[C@H](CCCCN)NC(=O)[C@@H](N)CCCCN)C(C)C)C(C)C)C(=O)N[C@@H](CCCCN)C(=O)N[C@@H](Cc1ccccc1)C(=O)N[C@@H](CCCCN)C(=O)O` [KSL-W] (H-KKVVFWVKFK-OH), the MIC [1] was 0.49 to 0.98 µg/mL, the MIC [2] was 15.63 to 31.25 µg/mL and the “LR, Log10 reduction in bacterial metabolism for a given MBIC” value (from here on “LR, Log10 reduction”) [3] was 3 LR. For the same compound, the “LR, Log10 reduction” value ([4]; cra4029 (SE 02)) was 2 LR, the MBIC ([4]; cra4029 (SE 02, 24 h)) was 0.24 to 0.49 µg/mL and the “LR, Log10 reduction” value [5] was 2 LR. For the same compound, the “LR, Log10 reduction” value ([6]; cra4024 (EF 01)) was 3 LR, the MBIC ([6]; cra4024 (EF 01, 24 h)) was 3.91 to 7.81 µg/mL and the MBIC [7] was 31.25 µg/mL. The MBIC [8] was 31.25 µg/mL, the “LR, Log10 reduction” value [9] was 3 LR and the “LR, Log10 reduction” value [10] was 3 LR. The “LR, Log10 reduction” value ([11]; cra4033 (EF 02)) was 2 LR, the MBIC ([11]; cra4033 (EF 02, 24 h)) was 3.91 µg/mL and the MBC [12] was 1.95 µg/mL (≈ 1.49 µM).
